Results reported in patent US8378172B2, “Methods using acyl-CoA binding proteins to enhance low-temperature tolerance in genetically modified plants” (The University of Hong Kong, priority 2009, dated 2013).

Legend:
(His)6-ACBP6 [1] = biological target: T1, (His)6-ACBP6 (Arabidopsis thaliana, UniProt P57752); experiment: in vitro filter-binding assay, (His)6-ACBP6/lipid binding on nitrocellulose; conditions: 1 μg/ml (His)6-ACBP6
T1 construct: made in house; host or cells: Escherichia coli
Method: A, Purification of (His)6-ACBP6 recombinant protein. […] M, marker; lane 1, flow through fraction; lane 2, washing fraction at pH 6.3; lanes 3-8, eluted fractions at pH 5.9; lanes 9-12, eluted fractions at pH 4.5. B, (His)6-ACBP6/lipid binding on filters. Various concentrations (0, 12.5, 25.0 and 32.5 μM) of lipids (PA, PC and LysoPC) were spotted onto nitrocellulose and incubated with 1 μg/ml of purified (His)6-ACBP6 protein. The (His)6-ACBP6/lipid binding was detected by immunoblotting with HRP-conjugated anti-penta-His antibodies. C, Effect of PC acyl species on (His)6-ACBP6/lipid binding. Fifty μM lipid (PC, 16:0-PC, 18:0-PC, 18:1-PC, 18:2-PC or DMPC) spotted onto nitrocellulose was incubated with 1 μg/ml of purified (His)6-ACBP6 protein. The (His)6-ACBP6/lipid binding was detected by immunoblotting with HRP-conjugated anti-penta-His antibodies. […]
Expression and purification of His-tagged ACBP6 recombinant protein was carried out according to Xiao et al. (Plant J 54: 141-151, 2008). […] Following incubated with the HRP-conjugated anti-penta-His antibodies (1:2,000; QIAGEN, Cat. No. 1014922) for 1 h at RT, the filter was again washed 3 times with TTBS, each for 10 min and then detected with the ECL Western Blotting Detection Kit (Amersham) following the manufacturer's protocols.
T1 sequence (P57752 other isoform, or with tags, fused parts or gaps): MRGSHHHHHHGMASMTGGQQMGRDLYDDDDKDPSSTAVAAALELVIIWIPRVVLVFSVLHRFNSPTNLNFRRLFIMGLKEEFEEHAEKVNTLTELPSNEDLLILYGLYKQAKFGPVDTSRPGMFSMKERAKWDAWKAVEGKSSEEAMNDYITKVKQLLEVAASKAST

(His)6-ACBP6 [2] = biological target: T2, (His)6-ACBP6 (Arabidopsis thaliana, UniProt P57752); conditions: recombinant (His)6-ACBP6; read-out: dissociation constant (Kd) in binding oleoyl-CoA esters; cited from earlier work
T2 construct: (His)6
T2 sequence (P57752 1-92): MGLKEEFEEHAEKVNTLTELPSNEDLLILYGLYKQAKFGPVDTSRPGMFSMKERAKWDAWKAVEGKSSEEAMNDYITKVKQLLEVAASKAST

(His)6-ACBP4 = biological target: T3, (His)6-ACBP4 (Arabidopsis thaliana, UniProt Q9MA55); conditions: recombinant (His)6-ACBP4; read-out: dissociation constant (Kd) in binding oleoyl-CoA esters; cited from earlier work
T3 construct: (His)6
T3 sequence (Q9MA55 1-668): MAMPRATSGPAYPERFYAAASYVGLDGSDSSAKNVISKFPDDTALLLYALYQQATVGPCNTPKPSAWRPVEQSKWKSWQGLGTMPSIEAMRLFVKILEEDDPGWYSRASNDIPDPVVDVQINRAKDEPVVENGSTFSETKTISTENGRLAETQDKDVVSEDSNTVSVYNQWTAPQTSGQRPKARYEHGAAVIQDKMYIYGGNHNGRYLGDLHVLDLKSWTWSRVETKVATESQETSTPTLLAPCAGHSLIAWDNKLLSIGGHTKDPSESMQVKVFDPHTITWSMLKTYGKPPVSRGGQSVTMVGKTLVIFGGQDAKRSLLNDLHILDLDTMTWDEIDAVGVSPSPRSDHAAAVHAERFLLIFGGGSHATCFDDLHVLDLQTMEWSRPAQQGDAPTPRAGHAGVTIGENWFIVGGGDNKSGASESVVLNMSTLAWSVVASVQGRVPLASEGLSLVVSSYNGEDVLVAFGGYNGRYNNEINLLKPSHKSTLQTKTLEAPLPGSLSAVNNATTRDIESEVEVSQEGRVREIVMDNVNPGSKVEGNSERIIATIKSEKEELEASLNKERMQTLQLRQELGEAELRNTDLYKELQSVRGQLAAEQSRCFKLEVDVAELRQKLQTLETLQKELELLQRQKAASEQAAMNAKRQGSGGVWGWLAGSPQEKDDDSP

(His)6-ACBP5 = biological target: T4, (His)6-ACBP5 (Arabidopsis thaliana, UniProt Q8RWD9); conditions: recombinant (His)6-ACBP5; read-out: dissociation constant (Kd) in binding oleoyl-CoA esters; cited from earlier work
T4 construct: (His)6
T4 sequence (Q8RWD9 1-648): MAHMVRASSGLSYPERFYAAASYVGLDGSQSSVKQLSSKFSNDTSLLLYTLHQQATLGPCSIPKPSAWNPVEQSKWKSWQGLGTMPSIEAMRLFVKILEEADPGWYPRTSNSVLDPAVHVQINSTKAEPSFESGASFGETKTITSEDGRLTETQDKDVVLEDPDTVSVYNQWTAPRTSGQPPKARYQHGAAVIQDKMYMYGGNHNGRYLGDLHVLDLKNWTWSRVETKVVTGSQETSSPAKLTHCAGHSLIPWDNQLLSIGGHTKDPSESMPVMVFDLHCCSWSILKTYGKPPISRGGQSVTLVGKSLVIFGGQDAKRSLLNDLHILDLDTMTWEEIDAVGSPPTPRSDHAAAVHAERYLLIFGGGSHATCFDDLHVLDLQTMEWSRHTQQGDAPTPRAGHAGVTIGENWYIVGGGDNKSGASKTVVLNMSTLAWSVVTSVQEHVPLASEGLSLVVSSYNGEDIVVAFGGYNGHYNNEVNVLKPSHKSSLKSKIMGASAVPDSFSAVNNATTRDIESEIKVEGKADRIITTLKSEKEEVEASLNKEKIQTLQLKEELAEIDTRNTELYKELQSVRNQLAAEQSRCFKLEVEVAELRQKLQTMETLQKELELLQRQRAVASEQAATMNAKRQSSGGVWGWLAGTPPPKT

CCCCCCCCCCCCCC(=O)OC[C@H](COP(=O)([O-])OCC[N+](C)(C)C)OC(=O)CCCCCCCCCCCCC [DMPC, 1,2-dimyristoyl-sn-glycero-3-phosphocholine]
effect of PC acyl species on (His)6-ACBP6/lipid binding ((His)6-ACBP6 [1]; 50 μM lipid spotted, FIG. 7C): did not bind

1,2-diacyl-sn-glocero-3-phosphocholine [PC]
(His)6-ACBP6/lipid binding on filters ((His)6-ACBP6 [1]; 0, 12.5, 25.0 and 32.5 μM lipid spotted, FIG. 7B): binds

CCCCCCCC/C=C\CCCCCCCC(=O)SCCNC(=O)CCNC(=O)[C@H](O)C(C)(C)COP(=O)(O)OP(=O)(O)OC[C@H]1O[C@@H](n2cnc3c(N)ncnc32)[C@H](O)[C@@H]1OP(=O)(O)O [oleoyl-CoA]
Kd ((His)6-ACBP6 [2]): 3.7 µM
Kd ((His)6-ACBP4): 0.56 µM
Kd ((His)6-ACBP5): 0.68 µM
